Measured values reported in patent US7253171B2 (Laboratorios Almirall, S.A., priority 2001, dated 2007).
pIC50: −log10 of the molar value. Where two headings read alike, the source gives them in different places.

Columns and labels:
α4β7 integrin = target: T1, α4β7 integrin (Homo sapiens, UniProt P13612+P26010); assay: RPMI 8866 cell adhesion to mouse MAdCAM-1 (α4β7 binding assay); type: cell-based; details: RPMI 8866 cells, immobilized mouse MAdCAM-1
T1 construct: endogenous in cells; host or cells: RPMI 8866 cells
T1 sequence (P13612 34-1032): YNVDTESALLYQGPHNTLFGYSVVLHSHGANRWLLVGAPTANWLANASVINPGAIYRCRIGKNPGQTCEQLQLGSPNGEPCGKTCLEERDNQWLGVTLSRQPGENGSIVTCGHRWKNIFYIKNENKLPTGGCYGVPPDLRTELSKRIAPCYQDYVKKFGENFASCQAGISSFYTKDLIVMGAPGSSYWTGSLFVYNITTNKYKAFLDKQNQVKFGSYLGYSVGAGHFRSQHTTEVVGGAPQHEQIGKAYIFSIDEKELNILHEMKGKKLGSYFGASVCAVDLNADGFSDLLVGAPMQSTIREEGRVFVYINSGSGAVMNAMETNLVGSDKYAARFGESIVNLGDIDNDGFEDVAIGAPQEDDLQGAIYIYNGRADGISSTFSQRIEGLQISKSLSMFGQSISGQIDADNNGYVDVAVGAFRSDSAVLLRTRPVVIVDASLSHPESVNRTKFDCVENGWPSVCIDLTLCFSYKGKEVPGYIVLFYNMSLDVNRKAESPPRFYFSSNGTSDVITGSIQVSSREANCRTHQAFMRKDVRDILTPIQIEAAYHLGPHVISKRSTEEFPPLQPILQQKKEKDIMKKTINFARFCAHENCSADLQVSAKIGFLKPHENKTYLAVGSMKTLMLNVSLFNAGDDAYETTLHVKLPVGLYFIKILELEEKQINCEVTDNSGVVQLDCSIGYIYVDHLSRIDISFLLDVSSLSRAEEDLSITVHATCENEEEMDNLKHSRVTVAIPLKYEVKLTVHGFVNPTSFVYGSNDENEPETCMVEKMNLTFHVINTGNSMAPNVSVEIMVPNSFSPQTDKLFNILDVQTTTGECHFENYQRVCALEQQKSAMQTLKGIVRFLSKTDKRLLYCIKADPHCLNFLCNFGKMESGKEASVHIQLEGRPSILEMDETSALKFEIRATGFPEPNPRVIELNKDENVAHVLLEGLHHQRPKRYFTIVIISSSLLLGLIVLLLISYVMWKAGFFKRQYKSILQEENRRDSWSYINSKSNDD
T1 sequence (P26010 20-798): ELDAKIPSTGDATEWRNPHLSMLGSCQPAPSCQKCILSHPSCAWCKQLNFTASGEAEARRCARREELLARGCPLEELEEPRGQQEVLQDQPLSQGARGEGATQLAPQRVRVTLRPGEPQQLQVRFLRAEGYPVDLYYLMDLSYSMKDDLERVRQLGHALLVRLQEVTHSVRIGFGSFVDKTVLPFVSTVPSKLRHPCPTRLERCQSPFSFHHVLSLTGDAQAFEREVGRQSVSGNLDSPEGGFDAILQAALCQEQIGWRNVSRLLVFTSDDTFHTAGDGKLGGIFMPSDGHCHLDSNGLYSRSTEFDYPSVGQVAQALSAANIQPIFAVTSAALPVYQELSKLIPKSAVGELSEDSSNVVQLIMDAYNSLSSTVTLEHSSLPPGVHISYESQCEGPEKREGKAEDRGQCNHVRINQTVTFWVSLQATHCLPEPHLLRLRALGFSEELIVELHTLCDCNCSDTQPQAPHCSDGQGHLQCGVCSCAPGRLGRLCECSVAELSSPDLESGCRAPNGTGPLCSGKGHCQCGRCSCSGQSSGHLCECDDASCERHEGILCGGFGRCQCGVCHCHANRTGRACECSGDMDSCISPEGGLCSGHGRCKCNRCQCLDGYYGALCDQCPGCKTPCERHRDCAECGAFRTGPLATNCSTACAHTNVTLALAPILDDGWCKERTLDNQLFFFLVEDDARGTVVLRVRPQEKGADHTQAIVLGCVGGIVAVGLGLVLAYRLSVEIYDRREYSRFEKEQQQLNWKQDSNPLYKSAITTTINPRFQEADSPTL
Method: RPMI 8866 Cell Adhesion to Mouse MAdCAM-1 (α4β7 Binding Assay)
Recombinant mouse MAdCAM-1 was coated on a 96-well plate overnight. Unbound MAdCAM-1 was washed away and plates were blocked with 0,5% BSA. Cells were labelled with BCECF-AM and added to ligand-coated wells. Test compounds were added to the wells followed by RPMI 8866 and the adhesion assay was performed for 45 min at room temperature. Following incubation, the wells were emptied and washed. Inhibition of binding was measured by the quantity of fluorescence bound to the plate for each of the various concentrations of test compound, as well as for controls containing no test compound, with a Cytofluor 2300 fluorescence measurement system.

α4β1 integrin = target: T2, α4β1 integrin (Homo sapiens, UniProt P05556+P13612); assay: U-937 cell adhesion to human VCAM-1 (α4β1 binding assay); type: cell-based; details: U-937 cells, immobilized human VCAM-1; read-out: IC50 values in the α4β1 assays
T2 construct: endogenous in cells; host or cells: U-937 cells
T2 sequence (P05556 21-798, one chain of several): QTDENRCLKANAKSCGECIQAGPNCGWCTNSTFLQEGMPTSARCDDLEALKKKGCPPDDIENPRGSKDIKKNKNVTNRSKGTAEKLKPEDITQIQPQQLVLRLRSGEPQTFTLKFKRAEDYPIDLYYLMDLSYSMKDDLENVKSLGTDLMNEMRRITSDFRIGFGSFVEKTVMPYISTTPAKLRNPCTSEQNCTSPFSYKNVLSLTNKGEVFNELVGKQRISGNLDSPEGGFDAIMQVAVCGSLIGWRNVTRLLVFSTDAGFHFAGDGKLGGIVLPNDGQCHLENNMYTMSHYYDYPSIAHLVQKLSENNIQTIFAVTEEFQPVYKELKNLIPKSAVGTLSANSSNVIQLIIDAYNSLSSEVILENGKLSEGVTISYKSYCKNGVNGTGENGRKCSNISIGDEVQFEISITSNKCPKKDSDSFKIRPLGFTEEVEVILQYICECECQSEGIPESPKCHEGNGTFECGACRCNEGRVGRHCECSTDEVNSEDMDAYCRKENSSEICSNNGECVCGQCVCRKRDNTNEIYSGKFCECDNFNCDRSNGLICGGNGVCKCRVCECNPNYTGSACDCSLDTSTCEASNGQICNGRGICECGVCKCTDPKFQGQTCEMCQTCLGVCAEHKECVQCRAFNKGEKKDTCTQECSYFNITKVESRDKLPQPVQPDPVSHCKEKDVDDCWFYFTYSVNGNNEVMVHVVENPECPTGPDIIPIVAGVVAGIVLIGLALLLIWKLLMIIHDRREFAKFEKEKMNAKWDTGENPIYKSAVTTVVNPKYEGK
Method: U-937 Cell Adhesion to Human VCAM-1 (α4β1 Binding Assay)
Recombinant human soluble VCAM-1 (R&D Systems Ltd., UK) at 2 μg/ml in PBS was immobilized overnight onto microtiter plates. Unbound VCAM-1 was washed away and VCAM-1 coated plates were blocked with bovine serum albumin (BSA) 2,5% in PBS for 2 h at room temperature. U-937 cells were labelled with 5-carboxyfluorescein diacetate (5-CFDA) in order to detect bound cells to the wells. Test compounds were added to the wells followed by U-937 cells and the adhesion assay was performed for 1 h at 37° C. Following incubation, the wells were emptied and washed. Inhibition of binding was measured by the quantity of fluorescence bound to the plate for each of the various concentrations of test compound, as well as for controls containing no test compound, with a Cytofluor 2300 fluorescence measurement system.

[1] = read-out: IC50 values in the α4β7
[2] = read-out: IC50 values in the α4β7 assays

SMILES	pIC50 (α4β7 integrin; [1])	pIC50 (α4β1 integrin)	pIC50 (α4β7 integrin; [2])
CN(C(=O)c1ccccc1N(CC1CC1)C(=O)N[C@@H](Cc1ccc(NC(=O)c2c(Cl)cncc2Cl)cc1)C(=O)O)C1CCCCC1 [Example 83]	> 7.00	> 7.00	
CN(C(=O)N[C@@H](Cc1ccc(NC(=O)c2c(Cl)cccc2Cl)cc1)C(=O)O)c1ccccc1S(=O)(=O)N1CCCCC1 [Example 76, (S)-3-[4-(2,6-Dichlorobenzoylamino)phenyl]-2-{3-methyl-3-[2-(piperidine-1-sulfonyl)-phenyl]ureido}propionic acid]		> 7.00	5.00 to 6.00
CCCN(C(=O)N[C@@H](Cc1ccc(NC(=O)c2c(Cl)cncc2Cl)cc1)C(=O)O)c1ccccc1C(=O)N(C)C1CCCCC1 [Example 82]	> 7.00	> 7.00	
CN1CCN(C(=O)Oc2ccc(C[C@H](NC(=O)Nc3ccccc3S(=O)(=O)c3ccccc3)C(=O)O)cc2)CC1 [Example 114, 4-Methylpiperazine-1-carboxylic acid 4-{(S)-2-[3-(2-benzenesulfonylphenyl)ureido]-2-carboxyethyl}phenyl ester]			5.00 to 6.00
CN(C1CCCCC1)S(=O)(=O)c1ccccc1NC(=O)N[C@@H](Cc1ccc(NC(=O)c2c(Cl)cccc2Cl)cc1)C(=O)O [Example 40]		> 7.00	5.00 to 6.00
COc1cncc(OC)c1C(=O)Nc1ccc(C[C@H](NC(=O)Nc2ccccc2S(=O)(=O)c2ccccc2)C(=O)O)cc1 [Example 105, (S)-2-[3-(2-Benzenesulfonylphenyl)ureido]-3-(4-{[1-(3,5-dimethoxypyridin-4-yl)-methanoyl]amino}phenyl)propionic acid]		> 7.00	
O=C(Nc1ccccc1S(=O)(=O)N1CCCCC1)N[C@@H](Cc1ccc(NC(=O)c2c(Cl)cccc2Cl)cc1)C(=O)O [Example 38, (S)-3-[4-(2,6-Dichlorobenzoylamino)phenyl]-2-{3-[2-(piperdine-1-sulfonyl)phenyl]ureido}propionic acid]		> 7.00	5.00 to 6.00
O=C(Nc1ccccc1S(=O)(=O)N1CCCCC1)N[C@@H](Cc1ccc(Nc2nccc3cnccc23)cc1)C(=O)O [Example 124, (S)-3-[4-([2,6]Naphthyridin-1-ylamino)phenyl]-2-{3-[2-(piperidine-1-sulfonyl)phenyl]ureido}propionic acid]		> 7.00	
O=C(Nc1ccccc1S(=O)(=O)NCc1cccs1)N[C@@H](Cc1ccc(NC(=O)c2c(Cl)cccc2Cl)cc1)C(=O)O [Example 21, (S)-3-[4-(2,6-Dichlorobenzoylamino)phenyl]-2-(3-{2-[(thiophen-2-ylmethyl)sulfamoyl]phenyl}ureido)propionic acid]		> 7.00	
O=C(Nc1cc(Cl)ccc1S(=O)(=O)c1ccccc1)N[C@@H](Cc1ccc(NC(=O)c2c(Cl)cccc2Cl)cc1)C(=O)O [Example 48, (S)-2-[3-(2-Benzenesulfonyl-5-chlorophenyl)ureido]-3-[4-(2,6-dichlorobenzoylamino)phenyl]propionic acid]		> 7.00	
CN(C(=O)N[C@@H](Cc1ccc(NC(=O)c2c(Cl)cccc2Cl)cc1)C(=O)O)c1ccccc1S(=O)(=O)c1ccccc1 [Example 23, (S)-2-[3-(2-Benzenesulfonylphenyl)-3-methylureido]-3-[4-(2,6-dichlorobenzoylamino)phenyl]propionic acid]		> 7.00	5.00 to 6.00
O=C(Nc1ccccc1S(=O)(=O)c1ccccc1)N[C@@H](Cc1ccc(Nc2nccc3ccncc23)cc1)C(=O)O [Example 128, (S)-2-[3-(2-Benzenesulfonylphenyl)ureido]-3-[4-([2,7]naphthyridin-1-ylamino)phenyl]propionic acid]		> 7.00	
CN1CCN(S(=O)(=O)c2ccccc2NC(=O)N[C@@H](Cc2ccc(NC(=O)c3c(Cl)cncc3Cl)cc2)C(=O)O)CC1 [Example 90, (S)-3-(4-{[1-(3,5-Dichloropyridin-4-yl)methanoyl]amino}phenyl)-2-{3-[2-(4-methylpiperazine-1-sulfonyl)phenyl]ureido}propionic acid]	> 7.00	> 7.00	
CC(C)(C)S(=O)(=O)c1ccccc1NC(=O)N[C@@H](Cc1ccc(NC(=O)c2c(Cl)cncc2Cl)cc1)C(=O)O [Example 94, (S)-3-(4-{[1-(3,5-Dichloropyridin-4-yl)methanoyl]amino}phenyl)-2-{3-[2-(2-methylpropane-2-sulfonyl)phenyl]ureido}propionic acid]		> 7.00	
O=C(Nc1ccccc1S(=O)(=O)N1CCCCC1)N[C@@H](Cc1ccc(NC(=O)c2c(Cl)cncc2Cl)cc1)C(=O)O [Example 62, (S)-3-{4-[(3,5-Dichloropyridine-4-carbonyl)amino]phenyl}-2-{3-[2-(piperidine-1-sulfonyl)phenyl]ureido}propionic acid]		> 7.00	
COc1ccc(OC)c(S(=O)(=O)c2ccc(Cl)cc2NC(=O)N[C@@H](Cc2ccc(NC(=O)c3c(Cl)cncc3Cl)cc2)C(=O)O)c1 [Example 64, (S)-2-{3-[5-Chloro-2-(2,5-dimethoxybenzenesulfonyl)phenyl]ureido}-3-{4-[(3,5-dichloropyridine-4-carbonyl)amino]phenyl}propionic acid]		> 7.00	
O=C(Nc1ccc(C[C@H](NC(=S)Nc2ccccc2S(=O)(=O)N2CCCCC2)C(=O)O)cc1)c1c(Cl)cncc1Cl [Example 147]		> 7.00	
